Measured values reported in US20090176817A1, “Method of Treatment of Diarrhea-Predominant Irritable Bowel Syndrome in a Subject” (priority 2005, published 2009).

Test system: diarrhea-predominant IBS subjects
Test: Study S241.3.006: weekly diary questions on adequate relief
Assay type: in vivo, human
Settings: for Number of months a subject was a responder: One month (Abdominal pain/discomfort) / Number of months a subject was a responder: One month (Abnormal bowel habits) / Number of months a subject was a responder: One month (IBS symptoms) / Number of months a subject was a responder: Three months (Abdominal pain/discomfort) / Number of months a subject was a responder: Three months (Abnormal bowel habits) / Number of months a subject was a responder: Three months (IBS symptoms) / Number of months a subject was a responder: Two months (Abdominal pain/discomfort) / Number of months a subject was a responder: Two months (Abnormal bowel habits) / Number of months a subject was a responder: Two months (IBS symptoms) / Number of months a subject was a responder: Zero months (Abdominal pain/discomfort) / Number of months a subject was a responder: Zero months (Abnormal bowel habits) / Number of months a subject was a responder: Zero months (IBS symptoms) / Overall responder rate, adequate relief of IBS symptoms / Overall responder rate, adequate relief of abdominal pain/discomfort / Overall responder rate, adequate relief of abnormal bowel habits: three-month treatment period; for Number of months a subject was a responder: One month (Abdominal pain/discomfort) / Number of months a subject was a responder: One month (Abnormal bowel habits) / Number of months a subject was a responder: One month (IBS symptoms) / Number of months a subject was a responder: Three months (Abdominal pain/discomfort) / Number of months a subject was a responder: Three months (Abnormal bowel habits) / Number of months a subject was a responder: Three months (IBS symptoms) / Number of months a subject was a responder: Two months (Abdominal pain/discomfort) / Number of months a subject was a responder: Two months (Abnormal bowel habits) / Number of months a subject was a responder: Two months (IBS symptoms) / Number of months a subject was a responder: Zero months (Abdominal pain/discomfort) / Number of months a subject was a responder: Zero months (Abnormal bowel habits) / Number of months a subject was a responder: Zero months (IBS symptoms): monthly LOCF
Procedure: The study was conducted in 129 study centers in the United States. At total of 2080 subjects consented to participate, and 711 subjects were randomized. A total of 692 subjects were analyzed for efficacy and 701 subjects were analyzed for safety. Diagnosis and main criteria for inclusion were IBS subjects satisfying the Rome I criteria (1992); the diarrhea predominant sub-population of the Rome II criteria; and a minimum abdominal pain/discomfort, stool frequency and consistency determined during the run-in period. Subjects were treated with cilansetron 2 mg tablets given orally TID or matching placebo tablets given orally TID for 12 weeks double-blind treatment.
The primary efficacy parameter was the number of months that a subject was a responder for IBS symptoms (abdominal pain, abdominal discomfort, abnormal bowel habits) over the 12-week treatment period. A responder for a month (monthly responder) was defined as a subject who answered the weekly question with “yes” at least twice for that month.
Studies S24 1.3.OO6, S24 1.3.0 1 1, and S24 1.3.009 used the following efficacy measurements: • The subjects answered the following three questions with “yes” or “no” using a phone diary at the end of each week: • a) During the last week, did you experience adequate relief of your IBS symptoms, such as abdominal pain, abdominal discomfort, abnormal bowel habits? • b) During the last week, did you experience adequate relief of your abdominal pain and/or discomfort? • c) During the last week, did you experience adequate relief of your abnormal bowel habits? • The subjects rated the following symptoms using the phone diary at the end of each day: • abdominal pain/discomfort (five-point scale); • stool consistency (seven-point Bristol Stool Scale); • stool frequency (number of bowel movements each day); • urgency (five-point scale); • straining (yes or no); • feeling of incomplete defecation (yes or no); • bloating or feeling of abdominal distension (five-point scale). • In Studies S241 A006 and S241.3.009, subjects completed the IBS-QOL Survey at Baseline (Day 1) and at the end of treatment. In Study S24 1.3.0 1 1, subjects completed the IBS-QOL Survey at Baseline (Day 1), at the end of the three-month treatment period, and at the end of rerandomized treatment.
In all three pivotal efficacy studies, the primary and main secondary efficacy parameters were based on the weekly diary questions on adequate relief and included the following: • 1. Number of months (one month equals four weeks) that a subject was a responder for the weekly diary questions on adequate relief. A responder for a month (monthly responder) was defined as a subject who answered the weekly question with “yes” at least twice for that month. For Studies S241.3.006 and S241.3.011, the primary efficacy parameter was the number of months that a subject was a responder for IBS symptoms during the 12-week treatment period. The two main secondary efficacy parameters were the number of months that a subject was a responder for abdominal pain/discomfort and abnormal bowel habits during the 12-week treatment period. For Study S241.3.009, the number of months that a subject was a responder for the weekly diary questions on adequate relief during Months 1 to 3 (the first 12 weeks) and Months 1 to 6 (24-week) was an additional key secondary efficacy parameter. • 2. Overall responder rate for the weekly diary questions on adequate relief. A responder was defined as a subject who answered the weekly question with “yes” for at least half of the answers available with a minimum of four weeks treatment duration. If a subject had less than four weeks treatment duration, the subject was considered a non-responder. The overall responder rate was the percentage of responders within a treatment group. For Study S241.3.009, the primary efficacy parameter was the overall responder rate for IBS symptoms during the 26-week treatment period. […]

[1] = Duration of IBS: ≦24 months, ITT, 2 mg TID
[2] = Female subjects, observed case, ITT, 2 mg TID
[3] = Male subjects, observed case, ITT, 2 mg TID

Cc1nccn1C[C@H]1CCc2c(c3cccc4c3n2CCC4)C1=O [Cilansetron, (R)-(−)-4,5,6,8,9,10-hexahydro-10-[(2-methyl-1H-imidazol-1-yl)methyl]-11H-pyrido-[3,2,1-jk]-carbazol-11-one]
Number of subjects who were responders during the three-month treatment period: Adequate relief of abnormal bowel habits (Duration of IBS: ≦24 months, 2 mg TID, observed case, ITT): 27 (53) n (%)
Number of months a subject was a responder: One month (Abdominal pain/discomfort) [1]: 7 (14) n (%)
Number of months a subject was a responder: One month (Abnormal bowel habits) [1]: 4 (8) n (%)
Number of months a subject was a responder: One month (IBS symptoms) [1]: 5 (10) n (%)
Number of months a subject was a responder: Three months (Abdominal pain/discomfort) [1]: 25 (49) n (%)
Number of months a subject was a responder: Three months (Abnormal bowel habits) [1]: 22 (43) n (%)
Number of months a subject was a responder: Three months (IBS symptoms) [1]: 19 (37) n (%)
Number of months a subject was a responder: Two months (Abdominal pain/discomfort) [1]: 4 (8) n (%)
Number of months a subject was a responder: Two months (Abnormal bowel habits) [1]: 7 (14) n (%)
Number of months a subject was a responder: Two months (IBS symptoms) [1]: 8 (16) n (%)
Number of months a subject was a responder: Zero months (Abdominal pain/discomfort) [1]: 15 (29) n (%)
Number of months a subject was a responder: Zero months (Abnormal bowel habits) [1]: 18 (35) n (%)
Number of months a subject was a responder: Zero months (IBS symptoms) [1]: 19 (37) n (%)
Number of months a subject was a responder: One month (Abdominal pain/discomfort) (Female subjects, ITT, 2 mg TID): 32 (13) n (%)
Number of months a subject was a responder: One month (Abnormal bowel habits) (Female subjects, ITT, 2 mg TID): 27 (11) n (%)
Number of months a subject was a responder: One month (IBS symptoms) (Female subjects, ITT, 2 mg TID): 36 (15) n (%)
Number of months a subject was a responder: Three months (Abdominal pain/discomfort) (Female subjects, ITT, 2 mg TID): 103 (42) n (%)
Number of months a subject was a responder: Three months (Abnormal bowel habits) (Female subjects, ITT, 2 mg TID): 104 (43) n (%)
Number of months a subject was a responder: Three months (IBS symptoms) (Female subjects, ITT, 2 mg TID): 94 (39) n (%)
Number of months a subject was a responder: Two months (Abdominal pain/discomfort) (Female subjects, ITT, 2 mg TID): 38 (16) n (%)
Number of months a subject was a responder: Two months (Abnormal bowel habits) (Female subjects, ITT, 2 mg TID): 37 (15) n (%)
Number of months a subject was a responder: Two months (IBS symptoms) (Female subjects, ITT, 2 mg TID): 38 (16) n (%)
Number of months a subject was a responder: Zero months (Abdominal pain/discomfort) (Female subjects, ITT, 2 mg TID): 70 (29) n (%)
Number of months a subject was a responder: Zero months (Abnormal bowel habits) (Female subjects, ITT, 2 mg TID): 75 (31) n (%)
Number of months a subject was a responder: Zero months (IBS symptoms) (Female subjects, ITT, 2 mg TID): 75 (31) n (%)
Overall responder rate, adequate relief of IBS symptoms [2]: 127 (52) n (%)
Overall responder rate, adequate relief of abdominal pain/discomfort [2]: 134 (55) n (%)
Overall responder rate, adequate relief of abnormal bowel habits [2]: 135 (56) n (%)
Number of months a subject was a responder: One month (Abdominal pain/discomfort) (Male subjects, ITT, 2 mg TID): 10 (10) n (%)
Number of months a subject was a responder: One month (Abnormal bowel habits) (Male subjects, ITT, 2 mg TID): 13 (13) n (%)
Number of months a subject was a responder: One month (IBS symptoms) (Male subjects, ITT, 2 mg TID): 9 (9) n (%)
Number of months a subject was a responder: Three months (Abdominal pain/discomfort) (Male subjects, ITT, 2 mg TID): 36 (36) n (%)
Number of months a subject was a responder: Three months (Abnormal bowel habits) (Male subjects, ITT, 2 mg TID): 25 (25) n (%)
Number of months a subject was a responder: Three months (IBS symptoms) (Male subjects, ITT, 2 mg TID): 25 (25) n (%)
Number of months a subject was a responder: Two months (Abdominal pain/discomfort) (Male subjects, ITT, 2 mg TID): 9 (9) n (%)
Number of months a subject was a responder: Two months (Abnormal bowel habits) (Male subjects, ITT, 2 mg TID): 15 (15) n (%)
Number of months a subject was a responder: Two months (IBS symptoms) (Male subjects, ITT, 2 mg TID): 15 (15) n (%)
Number of months a subject was a responder: Zero months (Abdominal pain/discomfort) (Male subjects, ITT, 2 mg TID): 46 (46) n (%)
Number of months a subject was a responder: Zero months (Abnormal bowel habits) (Male subjects, ITT, 2 mg TID): 48 (48) n (%)
Number of months a subject was a responder: Zero months (IBS symptoms) (Male subjects, ITT, 2 mg TID): 52 (51) n (%)
Overall responder rate, adequate relief of IBS symptoms [3]: 41 (41) n (%)
Overall responder rate, adequate relief of abdominal pain/discomfort [3]: 45 (45) n (%)
Overall responder rate, adequate relief of abnormal bowel habits [3]: 39 (39) n (%)
Overall responder rate, IBS symptoms (females): 52%
Overall responder rate, abdominal pain/discomfort (females): 55%
Overall responder rate, abnormal bowel habits (females): 56%
Overall responder rate, IBS symptoms (males): 41%
Overall responder rate, abdominal pain/discomfort (males): 45%
Overall responder rate, abnormal bowel habits (males): 39%
Overall responder rate, abdominal pain/discomfort (non-Caucasians): 48%
